Source: patent US10780090B2, “Heteroaryl compounds useful as inhibitors of SUMO activating enzyme” (Millennium Pharmaceuticals, Inc., priority 2014, dated 2020)
Where two headings read alike, the source gives them in different places.

Target: recombinant human SAE enzyme (Homo sapiens (Human), UniProt Q9UBT2)
Test: SAE HTRF enzyme assay
Format: biochemical
Conditions: for inhibition at 0.111 µM: read-out: Percent Inhibition
How it was run: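 HTRF read-out using Eu-cryptate anti-Flag and allophycocyanin anti-GST antibodies, added with EDTA stop buffer and read after 2 h at 24 °C. The preceding reaction ran 105 min at 24 °C: 0.11 nM recombinant SAE, 0.5 μM ATP, Sumo-Flag, Ubc9-GST, pH 7.5. Values given as single-concentration inhibition or IC50.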

[1] = SAE inhibition at compound concentration 0.111 μM
[2] = SAE inhibition, class symbols, legend in nM

Sequence of recombinant human SAE enzyme (Q9UBT2 whole entry): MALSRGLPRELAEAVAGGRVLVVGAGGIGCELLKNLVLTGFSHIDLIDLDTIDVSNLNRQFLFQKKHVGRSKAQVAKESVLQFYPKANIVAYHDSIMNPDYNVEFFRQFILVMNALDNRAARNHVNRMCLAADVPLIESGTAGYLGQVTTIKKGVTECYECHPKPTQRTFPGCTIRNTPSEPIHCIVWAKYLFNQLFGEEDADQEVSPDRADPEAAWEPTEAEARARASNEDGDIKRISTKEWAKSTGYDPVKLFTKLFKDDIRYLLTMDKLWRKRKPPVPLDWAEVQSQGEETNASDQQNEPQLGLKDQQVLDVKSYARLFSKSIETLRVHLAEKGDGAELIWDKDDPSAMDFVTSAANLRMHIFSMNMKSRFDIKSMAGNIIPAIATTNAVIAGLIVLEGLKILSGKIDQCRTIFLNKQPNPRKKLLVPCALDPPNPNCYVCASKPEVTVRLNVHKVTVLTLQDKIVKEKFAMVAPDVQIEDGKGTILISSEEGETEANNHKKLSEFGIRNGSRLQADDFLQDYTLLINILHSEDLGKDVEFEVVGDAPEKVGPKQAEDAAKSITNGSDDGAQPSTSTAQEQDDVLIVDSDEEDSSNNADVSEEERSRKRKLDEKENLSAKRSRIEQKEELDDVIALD
Sequence of recombinant human SAE enzyme (Q9UBE0 whole entry partner): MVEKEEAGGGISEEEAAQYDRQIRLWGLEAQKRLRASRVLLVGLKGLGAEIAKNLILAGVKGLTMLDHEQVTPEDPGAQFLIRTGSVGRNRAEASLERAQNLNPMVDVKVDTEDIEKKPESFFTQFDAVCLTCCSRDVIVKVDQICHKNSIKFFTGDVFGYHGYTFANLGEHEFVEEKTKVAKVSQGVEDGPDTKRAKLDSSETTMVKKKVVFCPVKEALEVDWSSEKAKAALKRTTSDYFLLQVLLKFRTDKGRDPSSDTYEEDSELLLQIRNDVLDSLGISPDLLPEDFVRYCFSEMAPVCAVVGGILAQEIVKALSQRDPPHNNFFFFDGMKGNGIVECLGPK

Row | SMILES | inhibition at 0.111 µM (Concentration 0.111 μM) | IC50 (class symbols A/B/C) | IC50 [2] | inhibition at 0.111 µM [1] | further results
1 | CC(=O)c1coc(C(=O)c2cncnc2N[C@@H]2C[C@H](COS(N)(=O)=O)[C@@H](O)C2)c1 [I-234, [(1R,2S,4R)-4-{[5-(4-Acetyl-2-furoyl)pyrimidin-4-yl]amino}-2-hydroxycyclopentyl]methyl sulfamate] | 20% | 100 to 1000 nM |  |  | 
2 | CC(C)(O)c1ccc(C(=O)c2cncnc2N[C@@H]2C[C@H](COS(N)(=O)=O)[C@@H](O)C2)s1 [I-235, {(1R,2S,4R)-2-hydroxy-4-[(5-{[5-(2-hydroxypropan-2-yl)-2-thienyl]carbonyl}pyrimidin-4-yl)amino]cyclopentyl}methyl sulfamate] | 22% | 100 to 1000 nM |  |  | 
3 | NS(=O)(=O)OC[C@H]1C[C@@H](Nc2nc(Cl)ncc2C(=O)c2ccc(-c3ccccc3)o2)[C@H](O)[C@@H]1O [I-236, [(1R,2R,3S,4R)-4-{[2-chloro-5-(5-phenyl-2-furoyl)pyrimidin-4-yl]amino}-2,3-dihydroxycyclopentyl]methyl sulfamate] | 19% | 100 to 1000 nM |  |  | 
4 | Cc1ccc(Cc2csc(C(=O)c3cncnc3N[C@@H]3C[C@H](COS(N)(=O)=O)[C@@H](O)C3)c2)o1 [I-237, [(1R,2S,4R)-2-Hydroxy-4-{[5-({4-[(5-methyl-2-furyl)methyl]-2-thienyl}carbonyl)pyrimidin-4-yl]amino}cyclopentyl]methyl sulfamate] | 25% | 100 to 1000 nM |  |  | 
5 | NS(=O)(=O)OC[C@H]1C[C@@H](Nc2ncncc2C(=O)c2ccc(S(=O)(=O)c3ccccc3)o2)C[C@@H]1O [I-239, [(1R,2S,4R)-2-Hydroxy-4-(5-[5-(phenylsulfonyl)-2-furoyl]pyrimidin-4-yl}amino)cyclopentyl]methyl sulfamate] |  | 100 to 1000 nM |  |  | Percent Inhibition (Concentration 0.111 μM): 14
6 | CC(C)(O)c1csc(C(=O)c2cncnc2N[C@@H]2C[C@H](COS(N)(=O)=O)[C@@H](O)C2)c1 [I-240, {(1R,2S,4R)-2-Hydroxy-4-[(5-{[4-(2-hydroxypropan-2-yl)-2-thienyl]carbonyl}pyrimidin-4-yl)amino]cyclopentyl}methyl sulfamate] | 19% | 100 to 1000 nM |  |  | 
7 | NS(=O)(=O)OC[C@H]1C[C@@H](Nc2ncncc2C(=O)c2cc(CN3CCN(c4ccccc4)CC3)cs2)C[C@@H]1O [I-241, [(1R,2S,4R)-2-hydroxy-4-{[5-({4-[(4-phenylpiperazin-1-yl)methyl]-2-thienyl}carbonyl)pyrimidin-4-yl]amino}cyclopentyl]methyl sulfamate] | 18% | 100 to 1000 nM |  |  | 
8 | CC(=O)c1cc(C(=O)c2cncnc2N[C@@H]2C[C@H](COS(N)(=O)=O)[C@@H](O)C2)sc1Cl [I-242, [(1R,2S,4R)-4-{(5-[(4-Acetyl-5-chloro-2-thienyl)carbonyl]pyrimidin-4-yl}amino)-2-hydroxycyclopentyl]methyl sulfamate] | 25% | 100 to 1000 nM |  |  | 
9 | NS(=O)(=O)OC[C@H]1C[C@@H](Nc2ncncc2C(=O)c2cc(Cn3cnc(Br)c3)cs2)C[C@@H]1O [I-243, [(1R,2S,4R)-4-{[5-({4-[(4-bromo-1H-imidazol-1-yl)methyl]-2-thienyl}carbonyl)pyrimidin-4-yl]amino}-2-hydroxycyclopentyl]methyl sulfamate] | 19% | 100 to 1000 nM |  |  | 
10 | Cc1sc(C(=O)c2cncnc2N[C@@H]2C[C@H](COS(N)(=O)=O)[C@@H](O)C2)cc1[C@H]1OCCc2ccccc21 [I-256a, [(1R,2S,4R)-4-{[5-({4-[(1S)-3,4-dihydro-1H-isochromen-1-yl]-5-methyl-2-thienyl}carbonyl)pyrimidin-4-yl]amino}-2-hydroxycyclopentyl]methyl sulfamate] | 94% | < 10 nM |  |  | 
11 | Cc1sc(C(=O)c2cncnc2N[C@@H]2C[C@H](COS(N)(=O)=O)[C@@H](O)C2)cc1[C@@H]1OCCc2ccccc21 [I-256b, [(1R,2S,4R)-4-{[5-({4-[(1R)-3,4-Dihydro-1H-isochromen-1-yl]-5-methyl-2-thienyl}carbonyl)pyrimidin-4-yl]amino}-2-hydroxycyclopentyl]methyl sulfamate] | 99% | < 10 nM |  |  | 
12 | Cc1sc(C(=O)c2cncnc2N[C@@H]2C[C@H](COS(N)(=O)=O)[C@@H](O)C2)cc1[C@H]1OCCc2ccc(Cl)cc21 [I-257a, [(1R,2S,4R)-4-{[5-({4-[(1S)-7-chloro-3,4-dihydro-1H-isochromen-1-yl]-5-methyl-2-thienyl}carbonyl)pyrimidin-4-yl]amino}-2-hydroxycyclopentyl]methyl sulfamate] | 74% | 10 to 100 nM |  |  | 
13 | Cc1sc(C(=O)c2cncnc2N[C@@H]2C[C@H](COS(N)(=O)=O)[C@@H](O)C2)cc1[C@@H]1OCCc2ccc(Cl)cc21 [I-257b, [(1R,2S,4R)-4-{[5-({4-[(1R)-7-Chloro-3,4-dihydro-1H-isochromen-1-yl]-5-methyl-2-thienyl}carbonyl)pyrimidin-4-yl]amino}-2-hydroxycyclopentyl]methyl sulfamate] | 99% | < 10 nM |  |  | 
14 | Cc1sc(C(=O)c2cncnc2N[C@@H]2C[C@H](COS(N)(=O)=O)[C@@H](O)C2)cc1[C@@H]1NCCc2ccc(Cl)cc21 [I-263a, [(1R,2S,4R)-4-[[5-[4-[(1R)-7-chloro-1,2,3,4-tetrahydroisoquinolin-1-yl]-5-methyl-thiophene-2-carbonyl]pyrimidin-4-yl]amino]-2-hydroxy-cyclopentyl]methyl sulfamate] | 101% | < 10 nM |  |  | 
15 | Cc1sc(C(=O)c2cncnc2N[C@@H]2C[C@H](COS(N)(=O)=O)[C@@H](O)C2)cc1[C@H]1NCCc2ccc(Cl)cc21 [I-263b, [(1R,2S,4R)-4-{[5-({4-[(1S)-7-chloro-1,2,3,4-tetrahydroisoquinolin-1-yl]-5-methyl-2-thienyl}carbonyl)pyrimidin-4-yl]amino}-2-hydroxycyclopentyl]methyl sulfamate] | 89% | 10 to 100 nM |  |  | 
16 | Cc1sc(C(=O)c2cncnc2N[C@@H]2C[C@H](COS(N)(=O)=O)[C@@H](O)C2)cc1[C@@H]1c2cc(Cl)ccc2CCN1C [I-306, [(1R,2S,4R)-4-[[5-[4-[(1R)-7-Chloro-2-methyl-3,4-dihydro-1H-isoquinolin-1-yl]-5-methyl-thiophene-2-carbonyl]pyrimidin-4-yl]amino]-2-hydroxy-cyclopentyl]methyl sulfamate and 2-carbonyl]pyrimidin-4-yl]amino]-2-hydroxy-cyclopentyl]methyl sulfamate] |  |  | < 10 nM |  | Percent Inhibition [1]: 98%
17 | Cc1sc(C(=O)c2cncnc2N[C@@H]2C[C@H](COS(N)(=O)=O)[C@@H](OC(=O)CN)C2)cc1[C@@H]1OCCc2ccc(Cl)cc21 [I-330, (1S,2R,4R)-4-{[5-({4-[(1R)-7-chloro-3,4-dihydro-1H-isochromen-1-yl]-5-methyl-2-thienyl}carbonyl)pyrimidin-4-yl]amino}-2-[(sulfamoyloxy)methyl]cyclopentyl aminoacetate] |  |  | 100 to 1000 nM | 34% | 
18 | Cc1sc(C(=O)c2cncnc2N[C@@H]2C[C@H](COS(N)(=O)=O)[C@@H](OC(=O)[C@@H](N)C(C)C)C2)cc1[C@@H]1OCCc2ccc(Cl)cc21 [I-338, (1S,2R,4R)-4-{[5-({4-[(1R)-7-Chloro-3,4-dihydro-1H-isochromen-1-yl]-5-methyl-2-thienyl}carbonyl)pyrimidin-4-yl]amino}-2-[(sulfamoyloxy)methyl]cyclopentyl (2S)-2-amino-3-methylbutanoate] |  |  | 10 to 100 nM | 56% | 
19 | Cc1sc(C(=O)c2cncnc2N[C@@H]2C[C@H](COS(N)(=O)=O)[C@@H](OC(=O)c3cccc(COP(=O)(O)O)c3)C2)cc1[C@@H]1OCCc2ccc(Cl)cc21 [I-345, (1S,2R,4R)-4-{[5-({4-[(1R)-7-chloro-3,4-dihydro-1H-isochromen-1-yl]-5-methyl-2-thienyl}carbonyl)pyrimidin-4-yl]amino}-2-[(sulfamoyloxy)methyl]cyclopentyl 3-[(phosphonooxy)methyl]benzoate] |  |  | 100 to 1000 nM | 5% | 
20 | NS(=O)(=O)OC[C@H]1C[C@@H](Nc2ncncc2C(=O)c2ncc(Cc3ccccc3)s2)[C@H](O)[C@@H]1O [I-350, [(1R,2R,3S,4R)-4-({5-[(5-benzyl-1,3-thiazol-2-yl)carbonyl]pyrimidin-4-yl}amino)-2,3-dihydroxycyclopentyl]methyl sulfamate] |  |  | 10 to 100 nM | 75% | 
21 | Cc1cccc(Cc2csc(C(=O)c3cncnc3N[C@@H]3C[C@H](COS(N)(=O)=O)[C@@H](O)C3)n2)c1 [I-351, {(1R,2S,4R)-2-hydroxy-4-[(5-{[4-(3-methylbenzyl)-1,3-thiazol-2-yl]carbonyl}pyrimidin-4-yl)amino]cyclopentyl}methyl sulfamate] |  |  |  | 93% | 
22 | Cc1sc(C(=O)c2cncnc2N[C@@H]2C[C@H](COS(N)(=O)=O)[C@@H](O)[C@H]2O)nc1Cc1cccc(Cl)c1 [I-352, {(1R,2R,3S,4R)-4-[(5-{[4-(3-chlorobenzyl)-5-methyl-1,3-thiazol-2-yl]carbonyl}pyrimidin-4-yl)amino]-2,3-dihydroxycyclopentyl}methyl sulfamate] |  |  | < 10 nM | 100% | 
23 | Cc1sc(C(=O)c2cncnc2N[C@@H]2C[C@H](COS(N)(=O)=O)[C@@H](O)C2)nc1Cc1cccc(Cl)c1 [I-353, {(1R,2S,4R)-4-[(5-{[4-(3-chlorobenzyl)-5-methyl-1,3-thiazol-2-yl]carbonyl}pyrimidin-4-yl)amino]-2-hydroxycyclopentyl}methyl sulfamate] |  |  | < 10 nM | 98% | 
24 | Cc1sc(C(=O)c2cncnc2N[C@@H]2C[C@H](COS(N)(=O)=O)[C@@H](O)[C@H]2O)nc1Cc1cccc(Br)c1 [I-354, {(1R,2R,3S,4R)-4-[(5-{[4-(3-bromobenzyl)-5-methyl-1,3-thiazol-2-yl]carbonyl}pyrimidin-4-yl)amino]-2,3-dihydroxycyclopentyl}methyl sulfamate] |  |  | < 10 nM | 100% | 
